Measurements taken from article PMC4702177, “Discovering new mTOR inhibitors for cancer treatment through virtual screening methods and in vitro assays” (Scientific Reports, 2016).
Where “and” joins values, the source holds several entries; their conditions need not be identical. Equal entries are not always repeated.

Assays:
[1] = molecular target: T1, human recombinant mTOR kinase (Homo sapiens, UniProt P42345); assay: In vitro mTOR kinase assay (K-LISA ELISA, p70S6K-GST substrate); type: biochemical; conditions: for inhibition at 10 µM: triplicate measurements; for IC50: mean ± SD of triplicate measurements
T1 construct: a purified recombinant mTOR fragment (amino acids 1360-2549, CBA104-1KIT from Calbiochem); purchased Calbiochem CBA104-1KIT
T1 sequence (P42345 1360-2549): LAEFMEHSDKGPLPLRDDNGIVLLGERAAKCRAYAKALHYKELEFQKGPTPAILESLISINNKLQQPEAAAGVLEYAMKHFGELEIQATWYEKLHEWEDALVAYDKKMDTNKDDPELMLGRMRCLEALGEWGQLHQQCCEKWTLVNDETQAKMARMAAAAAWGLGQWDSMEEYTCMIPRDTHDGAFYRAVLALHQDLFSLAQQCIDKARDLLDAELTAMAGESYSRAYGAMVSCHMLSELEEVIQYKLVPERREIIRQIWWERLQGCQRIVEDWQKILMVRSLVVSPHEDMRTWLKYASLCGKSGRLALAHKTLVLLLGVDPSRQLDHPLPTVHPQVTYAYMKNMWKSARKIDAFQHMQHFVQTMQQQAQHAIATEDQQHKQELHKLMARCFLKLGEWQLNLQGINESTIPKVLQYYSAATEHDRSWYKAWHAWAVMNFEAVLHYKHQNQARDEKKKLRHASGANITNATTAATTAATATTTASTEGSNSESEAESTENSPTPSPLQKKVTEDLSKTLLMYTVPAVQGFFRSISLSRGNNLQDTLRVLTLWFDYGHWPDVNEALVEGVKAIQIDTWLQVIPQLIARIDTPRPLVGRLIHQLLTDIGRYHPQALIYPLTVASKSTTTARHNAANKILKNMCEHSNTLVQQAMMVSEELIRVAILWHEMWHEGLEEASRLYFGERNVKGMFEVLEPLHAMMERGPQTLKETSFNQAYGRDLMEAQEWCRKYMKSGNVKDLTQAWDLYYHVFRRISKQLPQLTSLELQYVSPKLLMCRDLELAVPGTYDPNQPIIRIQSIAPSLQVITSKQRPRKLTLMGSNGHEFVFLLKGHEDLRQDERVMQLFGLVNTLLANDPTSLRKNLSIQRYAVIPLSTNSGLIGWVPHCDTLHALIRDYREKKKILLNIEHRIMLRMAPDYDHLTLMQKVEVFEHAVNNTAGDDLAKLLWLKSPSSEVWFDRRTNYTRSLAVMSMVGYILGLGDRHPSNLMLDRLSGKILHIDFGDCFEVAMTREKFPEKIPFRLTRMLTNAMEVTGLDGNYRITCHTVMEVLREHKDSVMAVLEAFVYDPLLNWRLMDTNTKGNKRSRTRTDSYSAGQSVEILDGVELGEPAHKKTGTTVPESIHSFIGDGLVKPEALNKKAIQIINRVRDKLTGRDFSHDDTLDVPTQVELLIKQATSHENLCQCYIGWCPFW
Description: The mTOR kinase inhibitory activities of the 41 final virtual hits were determined using an ELISA-based activity assays that utilize a p70S6K-GST fusion protein as a specific mTOR substrate (see the Experimental Section for details). For the initial screening, all the activities were measured at a concentration of 10 μM.
mTOR activity was evaluated using a purified recombinant mTOR fragment (amino acids 1360-2549, CBA104-1KIT from Calbiochem). The K-LISA^TM mTOR activity kit is an ELISA-based activity assay for detection of phosphorylation of a p70S6K-GST fusion protein (a specific mTOR substrate) in the presence of ATP. The assay was optimized for use with mTOR as described in the Calbiochem protocol. The assay takes place in 96-well plates and can be divided into two phases: an mTOR kinase reaction phase and phosphorylated substrate detection phase.
In the kinase reaction phase, the following components were mixed in the same well: 5 μL of a solution containing 5 μg/mL mTOR substrate (recombinant p70S6K-GST fusion protein) in Tris-buffered saline (1 L TBS: sodium chloride 8.8 g, Tris Base 2.4 g, HCl 13 mL, Tween-20 10 ml, ddH2O), 5 μL ATP solution containing 20 mM ATP diluted in kinase assay buffer (pH 7.4, 0.01% Tween 20, 1 mM EDTA, 10 mM MgCl2, 1 mM DTT), […] of human recombinant mTOR kinase at the optimal concentration (80 ng/well) diluted in kinase assay buffer, and 5 μL of serial dilutions of inhibitors diluted in DMSO and kinase assay buffer. For each inhibitor concentration, the assay was run in triplicate. The final reaction volume was 100 μL per well, and samples incubated for 30 min at room temperature.
The kinase reaction was stopped by adding 10 μL kinase stop solution to each well. The phosphorylated substrate was detected using Anti-p70S6K-pT389 antibody, followed by detection with HRP-Antibody Conjugate and TMB Substrate. Then, ELISA stop solution was added to each well to stop the reaction, and relative mTOR inhibition activity was determined by reading the absorbance at dual wavelengths of 450/540 nm.

mTOR kinase = molecular target: mTOR kinase; set-up: method as in PMID 11575159; conditions: read-out: IC50 (mTOR kinase, reported); cited from earlier work
[2] = test system: MCF-7 (human breast cancer cell); assay: In vitro cell proliferation assay; type: cell-based; conditions: data not shown
Description: (§1) Most human breast cancer cells and cervical cancer cells become resistant to current chemotherapeutic drugs due to mutation of apoptotic mechanisms. It has been reported that MCF-7 cells are resistant to most of the drugs approved by the US Food and Drug Administration (FDA), including paclitaxel, doxorubicin, 5-fluorouracil, etoposide, and camptothecin[31][32].
(§2) Cell proliferation was measured with an MTS assay (CellTiter 96 Aqueous ONE Solution kit; Promega, Madison, USA). MCF-7, HeLa, MGC-803, C6 and U87 cells in log-phase were seeded (5 × 10^3 cells/well) in 96-well plates for 24 h, and then the medium were replaced with fresh medium containing different concentrations of compounds. […] After incubation for 48 h, the cells were further incubated with 20 μL of MTS for 1–4 h at 37 °C in a humidified incubator with 5% CO2. The absorbance at 490 nm was measured using a mircoplate reader (Model680, Bio-Rad; Hercules, CA, USA). The inhibition rate (%) was calculated as equation (1): […]
(§3) IC50 values were determined from the results of at least three independent tests and calculated from the inhibition curves.

C6 (Glioma cell) = assay: In vitro cell proliferation assay; type: cell-based; conditions: data not shown
Description: as §1, §2, §3

[3] = test system: MGC-803 (human gastric cancer); assay: In vitro cell proliferation assay; type: cell-based; conditions: data not shown
Description: as §1, §2, §3

U87 cells (Glioma cell) = assay: In vitro cell proliferation assay; type: cell-based; conditions: data not shown
Description: as §1, §2, §3

[4] = test system: HeLa (human cervical cancer cell); assay: In vitro cell proliferation assay; type: cell-based; conditions: data not shown
Description: as §1, §2, §3

| Structure (SMILES) | inhibition at 10 µM [1] [%] | IC50 [1] | other results |
| --- | --- | --- | --- |
| Cc1cc(=O)n2nc(N)c(/N=N/c3ccccc3)c2[nH]1 [Compound 9] | 23 | – | – |
| COc1c(-c2ccoc2)oc2ccc(C)cc2c1=O [Compound 37] | 22 | – | – |
| O=[N+]([O-])c1c(Nc2ccc3c(c2)OCO3)cc(N2CCOCC2)c2nonc12 [Compound 18] | 38 | > 50 µM | – |
| NC(=O)c1nnn(Cc2cc(Cl)c(C(=O)c3ccc(Cl)cc3)c(Cl)c2)c1N [Compound 33] | 21 | – | – |
| Clc1ccc(-c2nnc3sc(-c4cnccn4)nn23)cc1 [Compound 20] | 55 | < 10 µM and 9.2 µM | – |
| COc1cc(/C=C2/SC(=S)N(C)C2=O)ccc1Oc1nc(N2CCOCC2)nc(N2CCOCC2)n1 [Compound 6] | 22 | – | – |
| CNc1cccc2c(NC(=S)NC(=O)c3cccc(C(=O)NC(C)=S)c3)cccc12 [Compound 40] | 91 | < 10 µM and 1.47 µM | anti-proliferative activity [2]: do not show anti-proliferative activity; anti-proliferative activity (C6 (Glioma cell)): do not show anti-proliferative activity; anti-proliferative activity [3]: do not show anti-proliferative activity; anti-proliferative activity (U87 cells (Glioma cell)): do not show anti-proliferative activity; anti-proliferative activity [4]: do not show anti-proliferative activity |
| COc1cccc(-c2nn3c(N)c(C#N)c(-c4cccnc4)nc3c2C)c1 [Compound 27] | 38 | 28.6 ± 2.65 µM | – |

The next lines start with results.

| inhibition at 10 µM [1] [%] | IC50 [1] | Structure (SMILES) | other results |
| --- | --- | --- | --- |
| 31 | 14.9 ± 1.01 µM | O=C(CCl)Nc1ccc(/C=C2\CCCn3c2nc2cc(NC(=O)CCl)ccc2c3=O)cc1 [Compound 36] | – |
| 30 | – | Nc1nc2ncc(-c3n[nH]cc3[N+](=O)[O-])cn2n1 [Compound 12] | – |
| 50 | 14.4 ± 2.02 µM | c1coc(-c2nnc3sc(-c4cnccn4)nn23)c1 [Compound 21] | – |
| 33 | > 50 µM | O=C(NC(=S)Nc1ccc2oc(-c3cccnc3)nc2c1)c1ccco1 [Compound 26] | – |
| 36 | > 50 µM | COC(=O)c1sc2nc(-c3ccccc3)nc(N3CCOCC3)c2c1C [Compound 25] | – |
